This passage reports IC50 results from US12577245B2, “Sulfonyl benzamide derivatives as Bcl-2 inhibitors” (ASCENTAGE PHARMA (SUZHOU) CO., LTD., priority 2021, dated 2026).

In test [1] the target is Bcl-2 WT (Homo sapiens, UniProt P10415). As to the kind of experiment: Bcl-2 WT inhibition, fluorescence polarization (Flu-BIM tracer) binding assay. The note with it: FP; 20 nM Bcl2, 5 nM Flu-BIM, 1 h incubation; read-out: Bcl-2 w.t. (FP).
Test [2] relates to RS4; 11Bcl-2-G101V cells. As to the kind of experiment: CellTiter-Glo (CTG) cell viability assay in RS4;11-Bcl-2-G101V cells. The class given is cell-based. The note with it: 72 h, 10% FBS, 3 days. As to the method:
RS4; 11Bcl-2-G101V, RS4; 11Bcl-2-D103E, RS4; 11Bcl-2-V156D and RS4; 11Bcl-2-G101V-D103E cells were obtained from Cobioer Biosciences. Cells were maintained in the RPMI-1640 medium with 10% FBS, 1% P/S and puromycin (1 μg/mL) at 37° C. and an atmosphere of 5% CO2.
• The effect of representative Compounds of the Disclosure on cell viability was determined using CellTiter-Glo® (CTG) luminescent cell viability assay (Promega, USA) according to the manufacturer's instructions. 95 μL of cell suspension (10000 cells/well) in culture medium were seeded into 96-well plates and cultured 4 hours. Each tested compound was serially diluted in blank culture medium, and 5 μL of the compound dilution was added to the corresponding well of the cell plate. After the addition of the tested compound, the cells were incubated at 37° C. in an atmosphere of 5% CO2 for 3 days. At the end of 3 days, 30 μL of CTG solution was added to each well of the plate and mix contents for 2 minutes on an orbital shaker. Allow the plate to incubate at room temperature for 15 mins to stabilize signal and record RLU on the Biotek plate reader. The readings were normalized to the vehicle cells, and the IC50 was calculated using GraphPad Prism 8 software.

In test [3] the test system is MV-4-11 cells. The test can be described thus: CCK-8 cell viability assay in MV-4-11 cells. The class given is cell-based. The note with it: Homo sapiens, MV4-11, 72 h, 10% FBS, 3 days. Here is the method:
MV-4-11 cells were obtained from University of Michigan. Cells were maintained in the RPMI-1640 medium with 10% FBS and 1% P/S at 37° C. and an atmosphere of 5% CO2.
• The effect of representative Compounds of the Disclosure on cell viability was determined using Cell Counting Kit-8 (CCK-8) assay (Shanghai Life iLab Biotech) according to the manufacturer's instructions. Each tested compound was serially diluted in culture medium, and 100 μL of the compound dilution was added to the corresponding well of the cell plate. 100 μL of MV-4-11 cell suspension (20000 cells/well) in culture medium were seeded into 96-well plates. The cells were incubated at 37° C. in an atmosphere of 5% CO2 for 3 days. At the end of 3 days, 20 μL of CCK-8 solution was added to each well of the plate and incubated for 1-4 hours. The plates were read at 450 nm on the Biotek plate reader. The readings were normalized to the vehicle cells, and the IC50 was calculated using GraphPad Prism 8 software.

Bcl-2 WT, sequence (P10415 whole entry): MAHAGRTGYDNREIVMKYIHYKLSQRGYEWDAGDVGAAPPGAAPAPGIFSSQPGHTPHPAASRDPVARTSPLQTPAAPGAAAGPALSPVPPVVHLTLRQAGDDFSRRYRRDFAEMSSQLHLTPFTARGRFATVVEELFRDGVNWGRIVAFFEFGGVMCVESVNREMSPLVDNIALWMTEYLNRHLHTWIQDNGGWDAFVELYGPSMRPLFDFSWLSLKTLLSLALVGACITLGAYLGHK

On to `Cc1sccc1C1=C(CN2CCN(c3ccc(C(=O)NS(=O)(=O)c4ccc(NCC5CCOCC5)c([N+](=O)[O-])c4)c(Oc4cnc5[nH]ccc5c4)c3)CC2)CCC(C)(C)C1` [Example 1, 2-((1H-pyrrolo[2,3-b]pyridin-5-yl)oxy)-4-(4-((4,4-dimethyl-2-(2-methylthiophen-3-yl)cyclohex-1-en-1-yl)methyl)piperazin-1-yl)-N-((3-nitro-4-(((tetrahydro-2H-pyran-4-yl)methyl)amino)phenyl)sulfonyl)benzamide], for which the IC50 came out at 0.0157 µM in test [1], 1.17 µM in test [2] and 0.027 µM in test [3].

`Cc1cscc1C1=C(CN2CCN(c3ccc(C(=O)NS(=O)(=O)c4ccc(NCC5CCOCC5)c([N+](=O)[O-])c4)c(Oc4cnc5[nH]ccc5c4)c3)CC2)CCC(C)(C)C1` [Example 2, 2-((1H-pyrrolo[2,3-b]pyridin-5-yl)oxy)-4-(4-((4,4-dimethyl-2-(4-methylthiophen-3-yl)cyclohex-1-en-1-yl)methyl)piperazin-1-yl)-N-((3-nitro-4-(((tetrahydro-2H-pyran-4-yl)methyl)amino)phenyl)sulfonyl)benzamide]: the results for the IC50 in test [1], in test [2] and in test [3] were 0.0159 µM, 1.3 µM and 0.028 µM, respectively.

In the case of `CC1(C)CCC(CN2CCN(c3ccc(C(=O)NS(=O)(=O)c4ccc(NCC5CCOCC5)c([N+](=O)[O-])c4)c(Oc4cnc5[nH]ccc5c4)c3)CC2)=C(c2csc(C(F)(F)F)c2)C1` [Example 3, 2-((1H-pyrrolo[2,3-b]pyridin-5-yl)oxy)-4-(4-((4,4-dimethyl-2-(5-(trifluoromethyl)thiophen-3-yl)cyclohex-1-en-1-yl)methyl)piperazin-1-yl)-N-((3-nitro-4-(((tetrahydro-2H-pyran-4-yl)methyl)amino)phenyl)sulfonyl)benzamide], the IC50 was 0.0277 µM in test [1], 3.8 µM in test [2] and 0.214 µM in test [3].

Consider `Cc1ccc(C2=C(CN3CCN(c4ccc(C(=O)NS(=O)(=O)c5ccc(NCC6CCOCC6)c([N+](=O)[O-])c5)c(Oc5cnc6[nH]ccc6c5)c4)CC3)CCC(C)(C)C2)s1` [Example 6, 2-((1H-pyrrolo[2,3-b]pyridin-5-yl)oxy)-4-(4-((4,4-dimethyl-2-(5-methylthiophen-2-yl)cyclohex-1-en-1-yl)methyl)piperazin-1-yl)-N-((3-nitro-4-(((tetrahydro-2H-pyran-4-yl)methyl)amino)phenyl)sulfonyl)benzamide], for which the IC50 in test [1] worked out at 0.0162 µM; in test [2] it was 3.94 µM; in test [3] it was 0.066 µM.

As to `CC(C)c1csc(C2=C(CN3CCN(c4ccc(C(=O)NS(=O)(=O)c5ccc(NCC6CCOCC6)c([N+](=O)[O-])c5)c(Oc5cnc6[nH]ccc6c5)c4)CC3)CCC(C)(C)C2)c1` [Example 8, 2-((1H-pyrrolo[2,3-b]pyridin-5-yl)oxy)-4-(4-((2-(4-isopropylthiophen-2-yl)-4,4-dimethylcyclohex-1-en-1-yl)methyl)piperazin-1-yl)-N-((3-nitro-4-(((tetrahydro-2H-pyran-4-yl)methyl)amino)phenyl)sulfonyl)benzamide], the IC50 in test [1] came to 0.0177 µM; in test [2] it was 1.44 µM; in test [3], 0.021 µM.

As for `CC(C)c1csc(C2=C(CN3CCN(c4ccc(C(=O)NS(=O)(=O)c5ccc(NC[C@H]6COCCO6)c([N+](=O)[O-])c5)c(Oc5cnc6[nH]ccc6c5)c4)CC3)CCC(C)(C)C2)c1` [Example 10, (S)—N-((4-(((1,4-dioxan-2-yl)methyl)amino)-3-nitrophenyl)sulfonyl)-2-((1H-pyrrolo[2,3-b]pyridin-5-yl)oxy)-4-(4-((2-(4-isopropylthiophen-2-yl)-4,4-dimethylcyclohex-1-en-1-yl)methyl)piperazin-1-yl)benzamide], the IC50 is 0.0203 µM in test [1], 1.04 µM in test [2] and 0.016 µM in test [3].

On to `CC(C)c1sccc1C1=C(CN2CCN(c3ccc(C(=O)NS(=O)(=O)c4ccc(NCC5CCOCC5)c([N+](=O)[O-])c4)c(Oc4cnc5[nH]ccc5c4)c3)CC2)CCC(C)(C)C1` [Example 11, 2-((1H-pyrrolo[2,3-b]pyridin-5-yl)oxy)-4-(4-((2-(2-isopropylthiophen-3-yl)-4,4-dimethylcyclohex-1-en-1-yl)-methyl)piperazin-1-yl)-N-((3-nitro-4-(((tetrahydro-2H-pyran-4-yl)methyl)amino)-phenyl)sulfonyl)benzamide], for which the IC50 amounted to 0.0209 µM in test [1], 2.36 µM in test [2] and 0.054 µM in test [3].

For the molecule `CC1(C)CCC(CN2CCN(c3ccc(C(=O)NS(=O)(=O)c4ccc(NC[C@H]5COCCO5)c([N+](=O)[O-])c4)c(Oc4cnc5[nH]ccc5c4)c3)CC2)=C(c2cc3c(s2)CCN(c2ccc(F)cc2)C3)C1` [Example 15, (S)—N-((4-(((1,4-dioxan-2-yl)methyl)amino)-3-nitrophenyl)sulfonyl)-2-((1H-pyrrolo[2,3-b]pyridin-5-yl)oxy)-4-(4-((2-(5-(4-fluorophenyl)-4,5,6,7-tetrahydrothieno[3,2-c]pyridin-2-yl)-4,4-dimethylcyclohex-1-en-1-yl)methyl)piperazin-1-yl)benzamide], the IC50 in test [1] worked out at 0.0276 µM; in test [2] it was 8.81 µM; in test [3] it was 0.466 µM.

Consider `CC1(C)CCC(CN2CCN(c3ccc(C(=O)NS(=O)(=O)c4ccc(NC[C@H]5CC[C@](C)(O)CC5)c([N+](=O)[O-])c4)c(Oc4cnc5[nH]ccc5c4)c3)CC2)=C(c2cc3c(s2)CCN(c2ccc(F)cc2)C3)C1` [Example 16, 2-((1H-pyrrolo[2,3-b]pyridin-5-yl)oxy)-4-(4-((2-(5-(4-fluorophenyl)-4,5,6,7-tetrahydrothieno[3,2-c]pyridin-2-yl)-4,4-dimethylcyclohex-1-en-1-yl)methyl)piperazin-1-yl)-N-((4-((((1r,4r)-4-hydroxy-4-methylcyclohexyl)methyl)amino)-3-nitrophenyl)sulfonyl)benzamide], for which the IC50 was found to be 0.042 µM in test [1], 5.63 µM in test [2] and 0.445 µM in test [3].

Turning to `CC1(C)CCC(CN2CCN(c3ccc(C(=O)NS(=O)(=O)c4ccc(NC[C@H]5CC[C@](C)(O)CC5)c([N+](=O)[O-])c4)c(Oc4cnc5[nH]ccc5c4)c3)CC2)=C(c2cc(-c3c(Cl)cc(C(C)(C)O)cc3Cl)cs2)C1` [Example 66, 2-((1H-pyrrolo[2,3-b]pyridin-5-yl)oxy)-4-(4-((2-(4-(2,6-dichloro-4-(2-hydroxypropan-2-yl)phenyl)thiophen-2-yl)-4,4-dimethylcyclohex-1-en-1-yl)methyl)piperazin-1-yl)-N-((4-((((1r,4r)-4-hydroxy-4-methylcyclohexyl)methyl)amino)-3-nitrophenyl)sulfonyl)benzamide], the results for the IC50 in test [2] and in test [3] were 0.361 µM and 0.132 µM, respectively.

As for `COC(C)(C)c1ccc(-c2csc(C3=C(CN4CCN(c5ccc(C(=O)NS(=O)(=O)c6ccc(NC[C@H]7CC[C@](C)(O)CC7)c([N+](=O)[O-])c6)c(Oc6cnc7[nH]ccc7c6)c5)CC4)CCC(C)(C)C3)c2)c(F)c1` [Example 76, 2-((1H-pyrrolo[2,3-b]pyridin-5-yl)oxy)-4-(4-((2-(4-(2-fluoro-4-(2-methoxypropan-2-yl)phenyl)thiophen-2-yl)-4,4-dimethylcyclohex-1-en-1-yl)methyl)piperazin-1-yl)-N-((4-((((1r,4r)-4-hydroxy-4-methylcyclohexyl)methyl)amino)-3-nitrophenyl)sulfonyl)benzamide], the IC50 in test [2] amounted to 1.7 µM; in test [3], 0.095 µM.

Turning to `CC1(C)CCC(CN2CCN(c3ccc(C(=O)NS(=O)(=O)c4ccc(NC[C@H]5CC[C@](C)(O)CC5)c([N+](=O)[O-])c4)c(Oc4cnc5[nH]ccc5c4)c3)CC2)=C(c2cc(-c3c(F)cc(C4(O)CCC4)cc3F)cs2)C1` [Example 77, 2-((1H-pyrrolo[2,3-b]pyridin-5-yl)oxy)-4-(4-((2-(4-(2,6-difluoro-4-(1-hydroxycyclobutyl)phenyl)thiophen-2-yl)-4,4-dimethylcyclohex-1-en-1-yl)methyl)piperazin-1-yl)-N-((4-((((1r,4r)-4-hydroxy-4-methylcyclohexyl)methyl)amino)-3-nitrophenyl)sulfonyl)benzamide], the IC50 is 0.49 µM in test [2] and 0.025 µM in test [3].
